# Test system: subjects with ciDME who have had prior anti-VEGF treatment
# Assay: Study 2: sham-controlled monthly intravitreal injections, BCVA (ETDRS) efficacy
# Format: in vivo, human
# Design: BCVA (letters): any loss from baseline, Diff. v. sham / BCVA: ≥5 letter loss from baseline, Diff. v. sham / BCVA: ≥10 letter loss from baseline, Diff. v. sham / BCVA: ≥15 letter loss from baseline, Diff. v. sham: unit not given here
# Settings: for BCVA: ≥10 letter loss from baseline, Diff. v. sham / BCVA: ≥15 letter loss from baseline, Diff. v. sham / BCVA (letters): any loss from baseline, Diff. v. sham / BCVA: ≥5 letter loss from baseline, Diff. v. sham: week 16
# Text: To investigate monthly dosing of intravitreal (IVT) injection of the compound of Formula A in subjects with ciDME who have had prior anti-VEGF treatment. In particular, to evaluate any effect on the efficacy in the treatment, prevention, or prevention of worsening of ciDME in subjects who have had prior anti-VEGF treatment.
# This study was a randomized, sham-controlled, double-masked, 3-arm study into efficacy, safety and tolerability of monthly intravitreal injections of the compound of Formula A as a monotherapy in adult subjects with ciDME. The subjects had all had prior anti-VEGF treatment.
# 129 adult subjects were chosen using the following inclusion criteria: • 1. Male or female adult subjects 18 years of age and older. • 2. Confirmed diagnosis of Type I or Type II diabetes mellitus (DM). Any of the following were sufficient: • a. Current regular use of insulin for the treatment of diabetes • b. Current regular use of oral anti-hyperglycemia agents for the treatment of diabetes • c. Documented diabetes by American Diabetes Association and/or World Health Organization (VVHO) criteria. • 3. Best Corrected Visual Acuity (BCVA), using Standard Early Treatment Diabetic Retinopathy Study (ETDRS) chart, of ≥19 letters (˜20/400) and ≤73 letters (˜20/40) in the study eye and ≥34 letters (˜20/200 or better) in the fellow eye at Screening and Day 1. • 4. Presence of ciDME in the study eye defined as Heidelberg Spectralis Optical Coherence Tomography (SD-OCT) CST ≥305 μm in women and ≥320 μm in men in the study eye (as assessed at Screening by the Investigator and Central Image Reading Center (CIRC) and on Day 1 by the Investigator). • 5. Subjects' first anti-VEGF injection in the study eye occurred 36 months prior to Day 1. • 6. Subjects received at least 3 anti-VEGF injections in the study eye within a 6-month period within the 36 months prior to Day 1. • 7. Subject's' last anti-VEGF injection in the study eye was 8 weeks prior to Day 1. • 8. Subjects, who in the view of the Investigator, were able to defer treatment in the study eye for at least 6 months following Day 1. • 9. […] Provide signed informed consent and were willing and capable of complying with clinic visits and study procedures.
# The 129 eligible subjects were randomized approximately 1:1:1 into three arms: • 1. Arm 1, N=44: • Received injections of 3 μg/eye (100 μL injection volume at a concentration of 30 μg/mL) of the compound of formula A; • 2. Arm 2, N=41: • Received injections of 6 μg/eye (100 μL injection volume at a concentration of 60 μg/mL) of the compound of formula A; and • 3. Arm 3, N=44: • Received a sham procedure; during a 12-week, double-masked treatment period (a total of 4 doses given at approximately monthly intervals).
# Subjects visited the study clinic on Day 1 and Weeks 4, 8, and 12 during the Treatment Phase for study drug administration or sham procedure, safety, and ophthalmic assessments.
# The ophthalmic assessments were carried out in approximately the following order at the subjects' visits to the study clinic on Day 1, and Weeks 4, 8 and 12: • BCVA (must be performed prior to all other ophthalmic procedures) • Slit lamp biomicroscopy • Pre-Injection IOP/IOP at visits with no study drug administration (must be done prior to dilation) • Dilated indirect ophthalmoscopy • Fundus photography • SD-OCT • Intravitreal injection • Post-Injection IOP
# All subjects visited the clinic at Weeks 16, 20, and 24 after the last study drug administration or sham procedure for safety and ophthalmic assessments. The visit window for Weeks 16, 20, and 24 is ±7 days.
# The assessment measured change from baseline in BCVA letter count in the study eye at Week 16. Change from baseline in BCVA letter count is calculated as Week 16 BCVA letter count minus Day 1 BCVA letter count such that a negative difference indicates a worsening in vision. […]
smiles,measurement,setting,value
"CCOc1ccc(C[C@@H](NC(=O)c2ccccc2)C(=O)N[C@@H](Cc2ccccc2)C(=O)NCc2ccc(CN)cc2)cc1 [compound of Formula A, N—[(R)-1-[(S)-1-(4-Aminomethyl-benzylcarbamoyl)-2-phenyl-ethylcarbamoyl]-2-(4-ethoxy-phenyl)-ethyl]-benzamide]","BCVA improvement (letters), change versus sham, mean","3 μg, 4 weeks, positive value is improvement",0.6 letters
same,"BCVA improvement (letters), change versus sham, mean","3 μg, 8 weeks, positive value is improvement",1.2 letters
same,"BCVA improvement (letters), change versus sham, mean","3 μg, 12 weeks, positive value is improvement",3.8 letters
same,"BCVA improvement (letters), change versus sham, mean","3 μg, 16 weeks, positive value is improvement",1.5 letters
same,"BCVA improvement (letters), change versus sham, mean","3 μg, 20 weeks, positive value is improvement",−1.2 letters
same,"BCVA improvement (letters), change versus sham, mean","3 μg, 24 weeks, positive value is improvement",−0.7 letters
same,"BCVA (letters): any loss from baseline, (%)","3 μg, week 16, n = 44",(50.0) %
same,"BCVA: ≥5 letter loss from baseline, (%)","3 μg, week 16, n = 44",(25.0) %
same,"BCVA: ≥10 letter loss from baseline, (%)","3 μg, week 16, n = 44",(9.1) %
same,"BCVA: ≥15 letter loss from baseline, (%)","3 μg, week 16, n = 44",(4.5) %
same,"BCVA: ≥10 letter loss from baseline, Diff. v. sham","3 μg, p-value 0.228",−11.4
same,"BCVA: ≥15 letter loss from baseline, Diff. v. sham","3 μg, p-value 0.4336",−6.8
same,"BCVA (letters): any loss from baseline, Diff. v. sham","3 μg, p-value 0.6695",−4.5
same,"BCVA: ≥5 letter loss from baseline, Diff. v. sham","3 μg, p-value 0.8083",−2.3
same,Improvement in BCVA (letters) score compared to sham after the treatment period (in words),"6 μg doses, through to the 24 week time period",maintained
same,"BCVA improvement (letters), change versus sham, mean","6 μg, all subjects, 4 weeks, positive value is improvement",0.9 letters
same,"BCVA improvement (letters), change versus sham, mean","6 μg, all subjects, 8 weeks, positive value is improvement",1.1 letters
same,"BCVA improvement (letters), change versus sham, mean","6 μg, all subjects, 12 weeks, positive value is improvement",2.9 letters
same,"BCVA improvement (letters), change versus sham, mean","6 μg, all subjects, 16 weeks, positive value is improvement",2.6 letters
same,"BCVA improvement (letters), change versus sham, mean","6 μg, all subjects, 20 weeks, positive value is improvement",2.0 letters
same,"BCVA improvement (letters), change versus sham, mean","6 μg, all subjects, 24 weeks, positive value is improvement",2.1 letters
same,"BCVA improvement (letters), change versus sham, mean","6 μg, early stage subjects (baseline BCVA >55 letters), 4 weeks",2.3 letters
same,"BCVA improvement (letters), change versus sham, mean","6 μg, early stage subjects (baseline BCVA >55 letters), 8 weeks",1.8 letters
same,"BCVA improvement (letters), change versus sham, mean","6 μg, early stage subjects (baseline BCVA >55 letters), 12 weeks",4.7 letters
same,"BCVA improvement (letters), change versus sham, mean","6 μg, early stage subjects (baseline BCVA >55 letters), 16 weeks",4.9 letters
same,"BCVA improvement (letters), change versus sham, mean","6 μg, early stage subjects (baseline BCVA >55 letters), 20 weeks",3.5 letters
same,"BCVA improvement (letters), change versus sham, mean","6 μg, early stage subjects (baseline BCVA >55 letters), 24 weeks",2.9 letters
same,"BCVA (letters): any loss from baseline, (%)","6 μg, week 16, n = 41",(32.5) %
same,"BCVA: ≥5 letter loss from baseline, (%)","6 μg, week 16, n = 41",(20.0) %
same,"BCVA: ≥10 letter loss from baseline, (%)","6 μg, week 16, n = 41",(5.0) %
same,"BCVA: ≥15 letter loss from baseline, (%)","6 μg, week 16, n = 41",(0) %
same,"BCVA (letters): any loss from baseline, Diff. v. sham","6 μg, p-value 0.0421",−22.0
same,"BCVA: ≥10 letter loss from baseline, Diff. v. sham","6 μg, p-value 0.0516",−15.5
same,"BCVA: ≥15 letter loss from baseline, Diff. v. sham","6 μg, p-value 0.0565",−11.4
same,"BCVA: ≥5 letter loss from baseline, Diff. v. sham","6 μg, p-value 0.4344",−7.3
same,Average improvement in BCVA score of early stage patients versus overall population (in words),"baseline BCVA greater than 55 letters, every measurement taken",consistently better average improvement in BCVA score than the overall average population score
same,Progression of DME or impaired visual acuity (in words),subjects that had previously had anti-VEGF treatment,slowing of the progression

# Reference: patent US20220401390A1, “TREATMENTS OF DIABETIC MACULAR EDEMA AND IMPAIRED VISUAL ACUITY” (KALVISTA PHARMACEUTICALS LIMITED, priority 2019, published 2022)
